Measured values taken from patent US3991200A, “Substituted nitroimidazolyl thiadiazoles and oxadiazoles as antibacterial agents and growth promoting compounds” (American Cyanamid Company, priority 1973, dated 1976).
Read-outs that look alike come from different tables or passages of the source.

What was measured:
bacteria = details: prior-art compounds; cited from earlier work
[1] = concentrations of drug in plasma of noninfected mice (agar-diffusion assay); format: in vivo; details: for Cmax: mouse, read-out: Peak concn. in plasma
Procedure: Concentrations of drug in plasma are determined by assay of blood obtained by heart puncture of noninfected mice. Blood samples (about 0.5 ml. per mouse) from 10 mice receiving the same dose of drug are pooled. The drug is assayed in the plasma by a standard agar-diffusion plate method with Bacillus subtilis (Lederle No. 17) as the test organism.

solubility in water = format: physicochemical
Salmonella gallinarum = test: controlling fowl typhoid in chicks, medicated feed; format: in vivo, Salmonella gallinarum (in sex-linked pullet chicks); details: 10 days
Procedure: Groups of five one-day old sex-linked pullet checks are infected orally by gavage with 0.5 ml. of a 10^-^2 dilution of a five-hour Trypticase Soy Broth culture of Salmonella gallinarum, the causative agent of fowl typhoid. Each chick receives approximately 6 × 10^5 viable cells. Medication is administered continuously in the feed, beginning 3 hours before infection and continuing for 10 days, at which time the test is terminated and the number of survivors in each group recorded. Each test utilizes two control groups of chicks, the first group comprising 20 chicks which are infected and untreated, and the second group comprising 10 chicks which are uninfected and untreated. The results of the tests are set forth in the following Table III (in some instances, the results from two or more tests are combined): […]

[2] = test system: Staphylococcus aureus strain Rose; test: antibacterial activity in mice, Tests with Staphylococcus aureus strain Rose; format: in vivo, Staphylococcus aureus (in Carworth Farms CFl-s female mice); details: read-out: Results alive/tested (converted)
Procedure: (§1) Experiments were conducted to determine the antibacterial activity of compounds of the present invention against Proteus mirabilis, Staphylococus aureus strain Smith and Staphylococcus aureus strain Rose a tetracycline-resistant strain of Staphylococcus aureus. Infection was initiated in Carworth Farms CFl-s female mice (body weight […].) by intra-abdominal infection of 0.5 ml. of the broth dilutions of 5 hour cultures of the above organisms.

Pasteurella multocida [3] = test: controlling a Pasteurella multocida infection in mice; format: in vivo, Pasteurella multocida (in Swiss Webster female mice); details: 336 h, 2 mg./mouse by gavage, two weeks post-infection, read-out: Survivors/Total (converted)
Procedure: Swiss Webster, female mice weighing 22±2 g. were infected by intrapeutoneal injection of 0.5 ml. of a 5 hour Trypticase Soy Broth culture containing 10^7 cfu. of P. multocida. Each mouse was given by gavage at the time of infection 2 mg. of the test drug suspended in 0.2% agar.

Escherichia coli = test: controlling colibacillosis in chicks infected with Escherichia coli, single oral dose; format: in vivo, Escherichia coli (in sex-linked pullet chicks); details: 20 chicks tested, 12 days after treatment
Procedure: Three groups of 10 five-day old sex-linked pullet chicks are infected parenterally, in the left thoracic air sac, with 0.2 ml. of a 10^-^1 dilution of a Trypticase Soy Broth culture of Escherichia coli, the causative agent of colibacillosis in poultry. The compounds to be tested are administered by gavage as a single oral dose in an aqueous solution or suspension, and the chicks are permitted to feed ad libitum the feed composition prepared in Example 44. Twelve days after treatment, the test is terminated and the number of survivors in each group recorded.
Four groups of 40, five-day old sex-linked pullet chicks are infected in the same manner as herein set forth with Escherichia coli. […] Twelve days after treatment, the test is terminated and the number of survivors in each group recorded.

Pasteurella multocida [4] = test: controlling a Pasteurella multocida infection in mice; format: in vivo, Pasteurella multocida (in Swiss Webster female mice); details: 336 h, two weeks post-infection, read-out: Survivors/Total (converted); for responders at 0.25 mg: 0.25 mg./mouse by gavage; for responders at 0.5 mg: 0.5 mg./mouse by gavage; for responders at 1 mg: 1 mg./mouse by gavage
[5] = test system: Salmonella choleraesuis var. kunzendorf; test: controlling enteritis, mice infected with Salmonella choleraesuis, medicated feed; format: in vivo; details: 10 mice tested
Procedure: Three groups of ten female Swiss Webster mice weighing 20 gm. are infected intraperitoneally with 0.5 ml. of 10^-^2 dilution of a five-hour Trypticase Soy Broth culture of Salmonella choleraesuis var. kunzendorf, the causitive agent of enteritis in pigs, an organism originally recovered from a field outbreak of Salmonella choleraesuis var. kunzendorf in pigs. Each mouse receives approximately 4.6 × 10^7 cells as the inoculating dose.
The mice are fed a medicated feed, which is a commercial mouse chow containing the compounds to be tested for 3 hours before the infection until 7 days after infection. The mice are held for an additional 7 days after the medication is stopped, and the number of survivors in each group recorded. The medicated feed is prepared by thoroughly admixing calculated amounts of the compounds with commercial mouse chow to provide essentially uniform distribution in the feed offered.

[6] = test system: Staphylococcus aureus strain Smith; test: antibacterial activity in mice, Tests with Staphylococcus aureus strain Smith; format: in vivo, Staphylococcus aureus (in Carworth Farms CFl-s female mice); details: read-out: Results alive/tested (converted)
Procedure: as §1

Proteus mirabilis = test: antibacterial activity in mice, Tests with Proteus mirabilis; format: in vivo, Proteus mirabilis (in Carworth Farms CFl-s female mice); details: 256 mg/kg
Procedure: as §1

[7] = test system: Salmonella choleraesuis var. kunzendorf; test: controlling enteritis caused by Salmonella choleraesuis in swine, medicated feed; format: in vivo, Salmonella choleraesuis var. kunzendorf (in pigs)
From the text: In the late afternoon of the day before infection, feed is removed from all pens. The following morning each group receives 2.5 lbs. of feed mixed either with normal broth or broth containing Salmonella choleraesuis variety kunzendorf organisms. […] For the rest of the trial the pigs are observed and graded daily. […] The trial is terminated four weeks after infection.

[8] = 0.006% in feed, 10 chicks tested
[9] = 0.025% in feed, 10 chicks tested

Cn1c([N+](=O)[O-])cnc1C=NN1CCNC1=O [1-[(1-methyl-5-nitro-2-imidazolylmethylene)amino]-2-imidazolidinone]
antibacterial activity, in words (bacteria): some antibacterial activity

Cn1c([N+](=O)[O-])cnc1-c1nnc(N)s1 [2-(2-Amino-5-Thiadiazolyl)-1-methyl-5-nitroimidazole]
absorption, in words ([1]; mice): rapidly absorbed
Cmax ([1]; in vivo, 89 mg/kg): 14000 to 18000 ng/mL
Cmax ([1]; plasma, 0.2 mg/kg): < 1000 ng/mL
Cmax ([1]; plasma, 16 mg/kg): 2000 to 4000 ng/mL
Cmax ([1]; plasma, 56 mg/kg): 6000 to 12000 ng/mL
solubility in water, in words (solubility in water): relatively insoluble in water

CCn1c([N+](=O)[O-])cnc1-c1nnc(N)o1 [2-(2-Amino-5-oxadiazolyl)-1-ethyl-5-nitroimidazole]
Survivors (Salmonella gallinarum; 0.006% in feed, 5 chicks tested): 3
Survivors (Salmonella gallinarum; 0.025% in feed, 5 chicks tested): 5
Survivors (Salmonella gallinarum; 0.1% in feed, 10 chicks tested): 10
responders at 512 mg/kg [2]: 100%
responders at 2 mg (Pasteurella multocida [3]): 80%

Cn1c([N+](=O)[O-])cnc1-c1nnc(N)o1 [2-(2-Amino-5-oxadiazolyl)-1-methyl-5-nitroimidazole]
Survivors (Escherichia coli; 5 mg/kg single oral dose): 7
Survivors (Escherichia coli; 20 mg/kg single oral dose): 13
Survivors (Escherichia coli; 80 mg/kg single oral dose): 15
Survivors (Salmonella gallinarum; [8]): 9
Survivors (Salmonella gallinarum; [9]): 10
Survivors (Salmonella gallinarum; 0.1% in feed, 10 chicks tested): 10
responders at 512 mg/kg [2]: 100%
responders at 2 mg (Pasteurella multocida [3]): 70%
responders at 0.25 mg (Pasteurella multocida [4]): 10%
responders at 0.5 mg (Pasteurella multocida [4]): 15%
responders at 1 mg (Pasteurella multocida [4]): 40%

CCn1c([N+](=O)[O-])cnc1-c1nnc(N)s1 [2-(2-Amino-5-thiadiazolyl)-1-ethyl-5-nitroimidazole]
Survivors (Salmonella gallinarum; [9]): 9
Survivors (Salmonella gallinarum; 0.1% in feed, 10 chicks tested): 10
Survivors ([5]; 0.025% in mouse chow): 3
Survivors ([5]; 0.1 % in mouse chow): 9
responders at 512 mg/kg [2]: 100%
responders at 2 mg (Pasteurella multocida [3]): 100%

CN(C)c1nnc(-c2ncc([N+](=O)[O-])n2C)o1 [2-(2-Dimethylamino-5-oxadiazolyl)-1-methyl-5-nitroimidazole]
Survivors (Salmonella gallinarum; [8]): 2
Survivors (Salmonella gallinarum; [9]): 9
Survivors (Salmonella gallinarum; 0.1% in feed, 10 chicks tested): 9
responders at 512 mg/kg [2]: 100%

CN(C)c1nnc(-c2ncc([N+](=O)[O-])n2C)s1 [2-(2-Dimethylamino-5-thiadiazolyl)-1-methyl-5-nitroimidazole]
Survivors (Salmonella gallinarum; 0.1% in feed, 5 chicks tested): 4
responders at 512 mg/kg ([6]; 512 mg/kg): 80%

Cn1c([N+](=O)[O-])cnc1-c1nnc(NC=O)s1 [2-(2-Formamido-5-Thiadiazolyl)-1-methyl-5-nitroimidazole]
Survivors (Salmonella gallinarum; 0.006% in feed, 15 chicks tested): 9
Survivors (Salmonella gallinarum; 0.025% in feed, 15 chicks tested): 11
Survivors (Salmonella gallinarum; 0.1% in feed, 10 chicks tested): 5
responders at 64 mg/kg [6]: 100%
responders at 512 mg/kg [2]: 100%
responders at 2 mg (Pasteurella multocida [3]): 100%
responders at 0.25 mg (Pasteurella multocida [4]): 80%
responders at 0.5 mg (Pasteurella multocida [4]): 100%
responders at 1 mg (Pasteurella multocida [4]): 90%

CNc1nnc(-c2ncc([N+](=O)[O-])n2C)s1 [2-(2-Methylamino-5-thiadiazolyl)-1-methyl-5-nitroimidazole]
Survivors (Salmonella gallinarum; 0.1% in feed, 5 chicks tested): 3
Results alive/tested (Proteus mirabilis): 4/5
responders at 512 mg/kg [2]: 80%

CN(C)CCCN1CCN(c2nnc(-c3ncc([N+](=O)[O-])n3C)s2)CC1 [2-{2-[4-(3-Dimethylaminopropyl)-1-piperazinyl]-5-thiadiazolyl}-1-methyl-5-nitroimidazole]
responders at 256 mg/kg [6]: 60%
responders at 2 mg (Pasteurella multocida [3]): 100%

CN(C)C=Nc1nnc(-c2ncc([N+](=O)[O-])n2C)s1 [2-{2-[ (Dimethylaminomethylene)amino]-5-thiadiazolyl} -1-methyl-5-nitroimidazole]
Survivors (Salmonella gallinarum; 0.05% in feed, 5 chicks tested): 5
Survivors (Salmonella gallinarum; 0.1% in feed, 5 chicks tested): 5
Results alive/tested (Proteus mirabilis): 3/5
responders at 64 mg/kg [6]: 100%
responders at 2 mg (Pasteurella multocida [3]): 100%
responders at 0.25 mg (Pasteurella multocida [4]): 80%
responders at 0.5 mg (Pasteurella multocida [4]): 97.5%
responders at 1 mg (Pasteurella multocida [4]): 93.3%

CCOC(=O)N1CCN(c2nnc(-c3ncc([N+](=O)[O-])n3C)s2)CC1 [2[2-(4-Carbethoxy-1-piperazinyl)-5-thiadiazolyl]-1-methyl-5-nitroimidazole]
responders at 256 mg/kg [6]: 80%

Cn1c([N+](=O)[O-])cnc1C=NN1CCOC1=O [3-[(1-methyl-5-nitro-2-imidazolylmethylene)amino]-2-oxazolidinone]
antibacterial activity, in words (bacteria): some antibacterial activity

O=C1OCCN1/N=C/c1ccc([N+](=O)[O-])o1 [Furazolidone]
Median Survival Time ([7]; 50 ppm in diet): 6.8 days
Survivors Per Total ([7]; 50 ppm in diet ([…] per day nitroimidazole, 2.1 furazolidone)): 0/10
Median Survival Time ([7]; 200 ppm in diet): 10.0 days
Survivors Per Total ([7]; 200 ppm in diet (12.3 mg/kg per day nitroimidazole, 7.5 furazolidone), *9/10 differs significantly from infected-untreated (P<.01)): 2/10
